The test system of experiment [1] is S. pneumoniae. The experiment in a line: Murine pneumonia model (invasive pneumococcal pneumonia). The note with it: 3 mg/kg IV at 24 and 48 hours after S. pneumoniae LD90 inoculation; moxifloxacin at 6, 24, 48 hours; all vehicle animals succumbed by 80 hours. The class given is in vivo. The procedure:
The effects of Compound 1 and Compound 2[2-(3-fluoro-4-hydroxyphenyl)-7-vinyl-1,3-benzoxazol-5-ol, or ERB-041] initially dosed at 3 mg/kg IV were being assessed on 7-day survival, microbial clearance and attenuation the acute and chronic pro-inflammatory effects of invasive pneumococcal pneumonia in lung tissue and distant organs in the murine pneumonia model. [Mohler J et al. Intensive Care Med 2003; 29:808-816.] Compound 1 and Compound 2 were tested to determine their ability to modulate the pathophysiology of severe infection and mortality from local and systemic inflammation from severe bacterial pneumonia. The compounds were delivered IV at 24 and 48 hours after inoculation with S. pneumoniae at an LD90 dose. Moxifloxacin was given at 6, 24 and 48 hours. The animals became bacteremic and develop a lethal pulmonary and systemic infection between 48 and 72 hours after the primary inoculation. All of the vehicle treated animals succumbed by 80 hours (3 days and 8 hours), while at 7 days 20% of the Compound 1—treated animals were alive and 60% of the Compound 2—treated animals survived.

The subject of experiment [2] is CLP-induced polymicrobial sepsis. As to the kind of experiment: Murine cecal ligation and puncture (CLP) model of polymicrobial sepsis. Format: in vivo, BALB/c mice. The note with it: score 0 normal to 4 marked diffuse inflammation and damage; oral dosing from time of CLP; euthanized at 48 hours; 8 animals; p<0.001 vs vehicle 3.08±0.74. As for the experimental part: Murine cecal ligation and puncture is an accepted model of sepsis and was performed according to a previously published protocol [Opal et al., “evaluation of the safety of recombinant P-selectin glycoprotein ligand-immunoglobulin G fusion protein in experimental models of localized and systemic infection,” Shock 2001;15:285-90]. […] Acute lung injury is a documented component of this peritonitis-induced sepsis, and the model has been used to study the effects of other pharmaceutical agents on acute lung injury in sepsis [Tsujimoto et al. Shock 2005;23:39-44; and Singleton et al. Am J Physiol Regul Integr Comp Physiol (Jan. 18, 2007)].
Mice were euthanized at 48 hours following CLP and treatment with vehicle or Compound 1, both treatments having begun at the time of CLP.
Compound 1 was given at a range of doses orally at time 0, 24 and 48 hours following CLP in male and female BALB/c mice Survival, inflammatory markers, lung histopathology, and microbiologic parameters were assessed.
Multiple lung specimens were taken at necropsy from 8 vehicle- and 8 Compound 1—treated animals and evaluated by an independent pathologist unaware of the treatment group assignments. Treatment with Compound 1 reduced lung lesions (such as lung edema and lung inflammation) comparing to that with vehicle (Compound 1: 1.0±0.76 vs. vehicle: 3.08±0.74, p<0.001). […]

The subject of experiment [3] is lung tissue gene expression. As to the kind of experiment: Lung tissue gene expression in the mCLP model (Affymetrix array, Ingenuity Pathways Analysis). Format: in vivo. The note with it: mice subjected to CLP, intravenous treatment at CLP induction, lung tissue at 48 hours. The procedure: In order to further define the activity of Compound 1 in murine CLP, satellite groups of mice were treated intravenously at the time of CLP induction surgery with vehicle or Compound 1. An additional group of mice(surgical sham group) were subjected to the anesthesia and laparotomy, the cecum was manipulated but not ligated, and then the abdomen was closed. Because mCLP produces a progressive sepsis state, the animals become extremely ill and begin to succumb between 48-72 hours after mCLP. Thus, these animals were euthanized at 48 hours and lung tissue samples collected for gene expression analysis.
Messenger RNA was prepared by standard techniques, and the samples were processed on the Mouse430—2 Affymetrix commercial array, containing 45,037 non-control probe sets.
A heat map of differential gene expression was used to detect those gene transcripts with gene expression decreasing and those gene transcripts with gene expression increasing.
Using Ingenuity Pathways Analysis (IPA), 277 of the 522 probe sets were eligible for generating pathways. […] These pathways are identified in Table 4.

In experiment [4] the test system is E. coli. As to the kind of experiment: Intravenous E. coli challenge model of sepsis in baboons. The class given is in vivo. The conditions noted are these: 10 mg/kg intravenously. As for the experimental part:
The intravenous E. coli infusion model of sepsis in baboons has been used for many years in sepsis research [Taylor F B Crit Care Med 2001 ;29:S78-89], and it has acute lung injury as one of its pathophysiological features [Sabharwal A K et al. Am J Resp Crit Care 1995; 151:758-67].
Compound 1 was given at a range of doses […] intravenously at a dose of 10 mg/kg in baboons 5 minutes before and then at 2, 24, 48, 72 and 96 hours following E. coli challenge. Survival, inflammatory markers, lung histopathology, and microbiologic parameters were assessed.
In the baboon study the lungs were examined at euthanasia of the animals when moribund or at the end of the 7 day experiment. Animals were assigned to vehicle and Compound 1 E. coli challenge. The lung specimens were evaluated by an independent pathologist unaware of treatment group assignments.

Experiment [5] concerns peripheral blood mononuclear cells (PBMC) gene transcripts and plasma chemokines. As to the kind of experiment: Plasma proteome and PBMC gene transcription in the IV live E. coli challenge model in baboon. The class given is in vivo. As for the experimental part: The plasma proteome and gene transcription of peripheral blood mononuclear cells (PBMC) were investigated using the baboon model of sepsis to evaluate the effect of Compound 1 on progression of the disease. The study comprised three treatment groups—sham-treated, vehicle, and Compound 1—of three baboons each. Blood samples were drawn at multiple time points (0, 0.5, 1, 2, 3, 4, 6, 24, 48, and 168 hours) from each baboon. NuGen amplified RNA was prepared from peripheral blood mononuclear cells (PBMC) isolated from the 0, 1, 6, and 24 hour blood samples. RNA levels were then measured using Affymetrix rhesus monkey Genechips, which interrogated 52,865 transcripts. Of interest was whether expression levels of one or more of these transcripts differed among the three treatment groups over the course of the study.
Genechip data were processed using Affymetrix MAS 5 software to calculate detection p-values and signal (expression) values. Detection p-values were used to generate Affymetrix Absent, Marginal, or Present calls (p-value≧0.065: Absent; 0.05≦p-value<0.065: Marginal; p-value<0.05: Present). Signal values were normalized by the standard MAS 5 procedure.
This filter reduced the number of transcripts for further analysis to 43,181.
To adjust for differences among animals in baseline expression values, change from baseline expression was analyzed. Change from baseline expression values were calculated using log2-transformed signal values. For each transcript, the log2 signal value for an animal at the 0 hour (baseline) sampling time was subtracted from the log2 signal value for the same animal for each later sampling time to yield change from baseline values for 1, 6, and 24 hours for that animal.
Repeated-measures analysis of variance (ANOVA) was used to compare (log2-transformed) change from baseline expression values in the treatment groups across the sampling time points. The ANOVA model included terms for treatment group and sampling time, and a term for the interaction between treatment group and time. The model also included a compound symmetry covariance parameter to account for any within-animal correlation between measurements at different sampling times from the same animal. Separate ANOVAs were run for each transcript. Pairwise comparisons between treatment groups were computed for mean concentrations across all times as well as for each time point separated. These pairwise comparisons were based on two-sided t-tests, with the error term for the t-tests based on the overall error term from the ANOVA.
Due to the substantial number of statistical tests performed, false discovery rates (FDRs) were used to adjust the raw p-values from F-tests and t-tests for multiple comparisons. The FDRs were computed to control the family-wise error level by calculating FDRs across transcripts separately for each set of comparisons (e.g., each pairwise comparison at a particular sampling time).

Where [6] appears, read: baboon plasma after E coli challenge.
[7] abbreviates: by 24 hours after E coli infusion, compared to vehicle treated animals.

For the molecule `C=Cc1cc(O)cc2nc(-c3ccc(O)c(F)c3)oc12` [Compound 2, 2-(3-fluoro-4-hydroxyphenyl)-7-vinyl-1,3-benzoxazol-5-ol], the “animals alive (survival) at 7 days” value in experiment [1] is 60%.
For `N#Cc1cc(-c2ccc(O)c(F)c2)cc2ccc(O)cc12` [Compound 1, 3-(3-fluoro-4-hydroxy-phenyl)-7-hydroxy-naphthalene-1-carbonitrile], the “lung lesions (lung edema and lung inflammation) histopathology score” value in experiment [2] was 1.0±0.76. Besides, in experiment [3], the “proinflammatory pathways (gene transcripts) in the lungs” value is reported as “significantly decreased”. Moreover, in experiment [4], the “clinical signs of pulmonary injury (percent change in respiratory rate from baseline)” value is “attenuated”. In experiment [4] (lungs at euthanasia or day 7), the “hyaline membrane formation (histopathology)” value is on record as “absence of hyaline membrane formation” and the “intrapulmonary hemorrhage (histopathology)” value was “decreased intrapulmonary hemorrhage”. In experiment [5] (setting [6]), the “plasma MCP-1” value is “significantly reduced” and the “plasma MIP-1 alpha” value is given as “significantly reduced”. Besides, in experiment [5] (setting [7]), the “Hypoxia inducible factor-2 Alpha (HIF2-ALPHA) gene transcript in PBMC” value was “decreased”; the “Nuclear receptor subfamily 4, group A, member 3 (NR4A3) gene transcript in PBMC” value is recorded as “decreased”; the “early growth response 3 (EGR-3) gene transcript in PBMC” value is on record as “decreased”. Further, the “animals alive (survival) at 7 days” value in experiment [1] turned out to be 20%.

These data come from patent US20080182872A1, “USE OF ER-BETA SELECTIVE LIGANDS FOR TREATING ACUTE LUNG INJURIES” (WYETH, priority 2007, published 2008).
